We go through 66 compounds from ChEMBL document CHEMBL1157924, “Exploration of secondary and tertiary pharmacophores in unsymmetrical N,N'-diaryl urea inhibitors of soluble epoxide hydrolase” (Bioorg Med Chem Lett, 2010).

The test addresses T1, Bifunctional epoxide hydrolase 2 (Homo sapiens, UniProt P34913).
T1 sequence (P34913 whole entry): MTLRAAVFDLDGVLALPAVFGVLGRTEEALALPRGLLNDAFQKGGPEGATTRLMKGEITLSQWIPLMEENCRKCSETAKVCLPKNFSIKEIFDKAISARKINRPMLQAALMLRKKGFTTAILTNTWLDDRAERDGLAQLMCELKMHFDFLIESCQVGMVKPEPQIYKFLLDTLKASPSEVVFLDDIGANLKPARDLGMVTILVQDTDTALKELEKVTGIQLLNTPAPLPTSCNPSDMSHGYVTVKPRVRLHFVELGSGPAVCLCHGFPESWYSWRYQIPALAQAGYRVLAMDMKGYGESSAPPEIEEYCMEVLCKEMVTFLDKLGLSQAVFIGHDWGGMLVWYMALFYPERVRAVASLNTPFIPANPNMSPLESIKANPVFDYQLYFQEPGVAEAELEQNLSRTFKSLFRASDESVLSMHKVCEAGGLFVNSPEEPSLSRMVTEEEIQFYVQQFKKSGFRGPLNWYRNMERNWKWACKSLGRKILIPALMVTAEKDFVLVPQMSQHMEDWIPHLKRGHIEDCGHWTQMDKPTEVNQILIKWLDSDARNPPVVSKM
Nature of the test: Inhibition of soluble epoxide hydrolase by fluorescence assay.
The compound `O=C(Nc1ccc(C(=O)NCC(=O)N2CCOCC2)cc1)Nc1ccc(C(F)(F)F)cc1` came in with an IC50 of 3 nM.

`O=C(Nc1ccc(C(F)(F)F)cc1)Nc1cccc(C(=O)c2ccc(C(=O)O)cc2)c1` came in with an IC50 of 27 nM.

The compound `O=C(O)COCCNC(=O)c1ccc(NC(=O)NC23CC4CC(CC(C4)C2)C3)cc1` showed an IC50 of 80 nM.

As to `CN(CC(=O)O)C(=O)c1ccc(NC(=O)NC23CC4CC(CC(C4)C2)C3)cc1`, the IC50 came to 200 nM.

The compound `O=C(Nc1ccc(Cl)cc1)Nc1cccc(C(=O)N2CCOCC2)c1` had an IC50 of 49 nM.

Compound `O=C(O)COCCNC(=O)c1cccc(NC(=O)NC23CC4CC(CC(C4)C2)C3)c1` yielded an IC50 of 130 nM.

Compound `O=C(Nc1ccc(Cl)cc1)Nc1cccc(C(=O)NCCN2CCOCC2)c1` yielded an IC50 of 130 nM.

As to `O=C(Nc1cccc(C(=O)NCCN2CCOCC2)c1)NC12CC3CC(CC(C3)C1)C2`, 62 nM corresponded to half-maximal inhibition (IC50).

As for `O=C(Nc1ccc(C(F)(F)F)cc1)Nc1ccc(C(=O)NCCN2CCCC2)c(F)c1`, 19 nM corresponded to half-maximal inhibition (IC50).

Compound `O=C(O)CNC(=O)c1cccc(NC(=O)NC23CC4CC(CC(C4)C2)C3)c1` had an IC50 of 800 nM.

`CN1CCN(C(=O)c2cccc(NC(=O)NC34CC5CC(CC(C5)C3)C4)c2)CC1` yielded an IC50 of 36 nM.

Compound `O=C(Nc1ccc(Cl)cc1)Nc1ccc(F)c(C(=O)NCCN2CCOCC2)c1` displayed an IC50 of 38 nM.

In turn, `CN(CC(=O)O)C(=O)c1cccc(NC(=O)NC23CC4CC(CC(C4)C2)C3)c1` gave an IC50 of 230 nM.

The compound `O=C(Nc1ccc(C(F)(F)F)cc1)Nc1ccc(C(=O)NCCN2CCOCC2)c(F)c1` had an IC50 of 2 nM.

`O=C(Nc1ccc(C(=O)c2ccc(C(=O)O)cc2)cc1)Nc1ccc(C(F)(F)F)cc1` returned a 50% inhibitory concentration (IC50) of 20 nM.

The compound `O=C(Nc1ccc(C(F)(F)F)cc1)Nc1ccc(S(=O)(=O)N2CCOCC2)cc1` displayed an IC50 of 1 nM.

For `CC(C)N1CCN(C(=O)c2ccc(NC(=O)Nc3ccc(OC(F)(F)F)cc3)cc2)CC1`, the IC50 amounted to 4 nM.

As to `CN1CCN(C(=O)c2ccc(NC(=O)Nc3ccc(C(F)(F)F)cc3)cc2F)CC1`, the IC50 was 4 nM.

Compound `O=C(Nc1ccc(C(=O)NCCN2CCCC2)cc1)Nc1ccc(C(F)(F)F)cc1` yielded an IC50 of 48 nM.

For `O=C(Nc1ccc(C(=O)Nc2cccnc2)cc1)Nc1ccc(C(F)(F)F)cc1`, 8 nM corresponded to half-maximal inhibition (IC50).

`O=C(Nc1ccc(Cl)cc1)Nc1ccc(C(=O)N2CCC(N3CCOCC3)CC2)cc1` registered an IC50 of 235 nM.

As to `O=C(Nc1ccc(OC(F)(F)F)cc1)Nc1ccc(C(=O)N2CCOCC2)cc1`, the IC50 stood at 4 nM.

Consider `O=C(Nc1ccc(C(F)(F)F)cc1)Nc1cccc(S(=O)(=O)NCCN2CCOCC2)c1`, for which the IC50 was found to be 1 nM.

Take `O=C(Nc1ccc(C(F)(F)F)cc1)Nc1ccc(F)c(C(=O)N2CCOCC2)c1`: the IC50 stood at 8 nM.

`O=C(Nc1ccc(Cl)cc1)Nc1cccc(C(=O)N2CCC(N3CCOCC3)CC2)c1` yielded an IC50 of 47 nM.

`CC(C)N1CCN(S(=O)(=O)c2ccc(NC(=O)Nc3ccc(C(F)(F)F)cc3)cc2)CC1` had an IC50 of 5 nM.

In turn, `CN1CCN(C(=O)c2cccc(NC(=O)Nc3ccc(C(F)(F)F)cc3)c2)CC1` came in with an IC50 of 12 nM.

Consider `O=C(Nc1ccc(F)cc1)Nc1ccc(C(=O)NCCN2CCOCC2)cc1`, for which half-maximal inhibition (IC50) was put at 140 nM.

`O=C(Nc1ccc(C(=O)N2CCNCC2)cc1)NC12CC3CC(CC(C3)C1)C2` registered an IC50 of 12 nM.

Turning to `O=C(Nc1ccc(C(F)(F)F)cc1)Nc1ccc(S(=O)(=O)CCCN2CCOCC2)cc1`, the IC50 worked out at 1 nM.

In turn, `O=C(Nc1ccc(C(F)(F)F)cc1)Nc1cccc(C(=O)NCCN2CCCC2)c1` returned an IC50 of 68 nM.

Regarding `O=C(O)CNC(=O)c1ccc(NC(=O)NC23CC4CC(CC(C4)C2)C3)cc1`, the IC50 is 490 nM.

`O=C(Nc1ccc(C(=O)NCCN2CCOCC2)cc1)Nc1ccc(C2CCCCC2)cc1` came in with an IC50 of 19 nM.

For the compound `O=C(O)CCCNC(=O)c1cccc(NC(=O)Nc2ccc(C(F)(F)F)cc2)c1`, 120 nM corresponded to half-maximal inhibition (IC50).

`O=C(Nc1ccccc1)Nc1ccc(C(=O)N2CCOCC2)cc1` showed an IC50 of 251 nM.

Take `CN1CCN(C(=O)c2cc(NC(=O)Nc3ccc(C(F)(F)F)cc3)ccc2F)CC1`: the IC50 came to 16 nM.

The compound `O=C(Nc1ccc(C(=O)N2CCOCC2)cc1)Nc1ccc(C(F)(F)F)cc1` yielded an IC50 of 5 nM.

`O=C(Nc1ccc(Cl)cc1)Nc1ccc(C(=O)N2CCOCC2)cc1` gave an IC50 of 18 nM.

For `CN1CCN(C(=O)c2ccc(NC(=O)Nc3ccc(C(F)(F)F)cc3)cc2)CC1`, the IC50 was determined as 14 nM.

The compound `CC(C)N1CCN(S(=O)(=O)c2cccc(NC(=O)Nc3ccc(C(F)(F)F)cc3)c2)CC1` registered an IC50 of 3 nM.

For `O=C(O)CCCNC(=O)c1ccc(NC(=O)Nc2ccc(C(F)(F)F)cc2)cc1`, the IC50 stood at 19 nM.

With `O=C(Nc1ccccc1)Nc1ccc(C(=O)NCCN2CCOCC2)cc1`, half-maximal inhibition (IC50) was put at 320 nM.

As for `O=C(Nc1ccc(C(F)(F)F)cc1)Nc1cccc(S(=O)(=O)CCCN2CCOCC2)c1`, half-maximal inhibition (IC50) required 1 nM.

Turning to `O=C(Nc1ccc(C(=O)NCCN2CCOCC2)cc1)NC12CC3CC(CC(C3)C1)C2`, the IC50 stood at 3 nM.

Take `O=C(Nc1ccc(C(F)(F)F)cc1)Nc1cccc(S(=O)(=O)N2CCOCC2)c1`: the IC50 was found to be 1 nM.

In turn, `O=C(Nc1ccc(C(F)(F)F)cc1)Nc1ccc(S(=O)(=O)NCCN2CCOCC2)cc1` showed an IC50 of 3 nM.

With `O=C(Nc1ccc(Cl)cc1)Nc1ccc(F)c(C(=O)NCCN2CCCC2)c1`, inhibition was half-maximal at 760 nM (IC50).

In the case of `O=C(Nc1ccccc1)Nc1cccc(C(=O)NCCN2CCOCC2)c1`, the IC50 is 2800 nM.

With `O=C(Nc1ccc(Cl)cc1)Nc1ccc(C(=O)N2CCOCC2)c(F)c1`, the IC50 worked out at 11 nM.

Turning to `O=C(Nc1ccccc1)Nc1ccc(S(=O)(=O)CCCN2CCOCC2)cc1`, the midpoint of inhibition, the IC50, lay at 54 nM.

Compound `O=C(Nc1ccc(Cl)cc1)Nc1ccc(C(=O)NCCN2CCOCC2)cc1` returned an IC50 of 16 nM.

`O=C(Nc1ccc(C(F)(F)F)cc1)Nc1ccc(C(=O)N2CCOCC2)c(F)c1` showed an IC50 of 2 nM.

As for `CN1CCN(C(=O)c2ccc(NC(=O)Nc3ccc(OC(F)(F)F)cc3)cc2)CC1`, the IC50 is 7 nM.

With `CC(C)N1CCN(C(=O)c2cccc(NC(=O)Nc3ccc(C(F)(F)F)cc3)c2)CC1`, inhibition was half-maximal at 15 nM (IC50).

`CC(C)N1CCN(C(=O)c2ccc(NC(=O)Nc3ccc(C(F)(F)F)cc3)cc2)CC1` displayed an IC50 of 2 nM.

Regarding `COCCNC(=O)c1cccc(NC(=O)NC23CC4CC(CC(C4)C2)C3)c1`, half-maximal inhibition (IC50) was put at 110 nM.

In turn, `O=C(Nc1ccc(OC(F)(F)F)cc1)Nc1ccc(C(=O)NCCN2CCOCC2)cc1` had an IC50 of 2 nM.

`O=C(Nc1ccccc1)Nc1cccc(S(=O)(=O)CCCN2CCOCC2)c1` came in with an IC50 of 100 nM.

Consider `CN1CCN(C(=O)c2ccc(NC(=O)Nc3ccc(F)cc3)cc2)CC1`, for which the IC50 was determined as 160 nM.

`O=C(Nc1ccc(C(F)(F)F)cc1)Nc1cccc(C(=O)NCCN2CCOCC2)c1`: half-maximal inhibition (IC50) was put at 22 nM.

The compound `O=C(Nc1ccc(C(F)(F)F)cc1)Nc1ccc(F)c(C(=O)NCCN2CCOCC2)c1` showed an IC50 of 18 nM.

The compound `COCCNC(=O)c1ccc(NC(=O)NC23CC4CC(CC(C4)C2)C3)cc1` displayed an IC50 of 54 nM.

In turn, `O=C(Nc1ccc(C(F)(F)F)cc1)Nc1cccc(C(=O)Nc2cccnc2)c1` displayed an IC50 of 18 nM.

For the compound `O=C(Nc1ccc(F)cc1)Nc1ccc(C(=O)N2CCOCC2)cc1`, half-maximal inhibition (IC50) required 170 nM.

Compound `O=C(Nc1ccc(C(=O)NCCN2CCOCC2)cc1)Nc1ccc(C(F)(F)F)cc1` came in with an IC50 of 1 nM.

`O=C(Nc1ccc(C2CCCCC2)cc1)Nc1cccc(C(=O)NCCN2CCOCC2)c1` had an IC50 of 280 nM.
